From ChEMBL document CHEMBL1201862, “PubChem BioAssay data set” (2004)
Active and inactive are the calls of the source.

Assays:
CHO = CHO cell viability loss, potency – luminescence, cytotoxicity control for TLR9-MyD88 binding inhibitor project, dose response (AID 588339); type: functional, cell-based, hamster; details: Cricetulus griseus;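 note: CHO cells stably coexpressing TLR9 and MyD88 fusions from primary screen; compound exposure lasted 48 hours before viability readout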
HEK293 = test: cells; type: functional, cell-based; details: Homo sapiens
[1] = target: T1, Nuclear receptor subfamily 0 group B member 1 (Homo sapiens, UniProt P51843); test: Luminescence-based cell-based high throughput dose response assay for inhibitors of the orphan nuclear receptor subfamily 0, group B, member 1 (DAX1; NR0B1). [Related pubchem assays (depositor defined):AID504766, AID504790]; type: functional
T1 sequence (P51843 whole entry): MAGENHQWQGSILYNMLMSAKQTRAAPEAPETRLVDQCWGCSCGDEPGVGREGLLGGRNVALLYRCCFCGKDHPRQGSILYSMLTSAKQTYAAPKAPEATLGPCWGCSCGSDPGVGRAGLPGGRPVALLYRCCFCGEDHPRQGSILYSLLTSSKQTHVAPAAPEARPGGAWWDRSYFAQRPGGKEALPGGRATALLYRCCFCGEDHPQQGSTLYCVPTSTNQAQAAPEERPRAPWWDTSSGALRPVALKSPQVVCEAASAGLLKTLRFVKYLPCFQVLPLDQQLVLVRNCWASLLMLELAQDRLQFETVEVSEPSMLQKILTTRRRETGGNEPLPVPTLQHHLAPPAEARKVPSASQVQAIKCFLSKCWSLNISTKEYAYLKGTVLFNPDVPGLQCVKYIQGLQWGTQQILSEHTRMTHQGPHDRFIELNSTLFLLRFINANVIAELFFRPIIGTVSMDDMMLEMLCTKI

[2] = target: Glucose-6-phosphate 1-dehydrogenase (Homo sapiens, UniProt P11413); test: inhibition of Homo sapiens G6PD, dose series – biochemical, fluorescence, selectivity assay for P. falciparum G6PD inhibitor project, dose response (AID 504792); type: functional
[3] = target: T2, High affinity choline transporter 1 (Homo sapiens, UniProt Q9GZV3); test: human choline transporter blockers, potency – cell-based, 5-point CRC, membrane potential dye, dose response (AID 504840); type: functional
T2 sequence (Q9GZV3 whole entry): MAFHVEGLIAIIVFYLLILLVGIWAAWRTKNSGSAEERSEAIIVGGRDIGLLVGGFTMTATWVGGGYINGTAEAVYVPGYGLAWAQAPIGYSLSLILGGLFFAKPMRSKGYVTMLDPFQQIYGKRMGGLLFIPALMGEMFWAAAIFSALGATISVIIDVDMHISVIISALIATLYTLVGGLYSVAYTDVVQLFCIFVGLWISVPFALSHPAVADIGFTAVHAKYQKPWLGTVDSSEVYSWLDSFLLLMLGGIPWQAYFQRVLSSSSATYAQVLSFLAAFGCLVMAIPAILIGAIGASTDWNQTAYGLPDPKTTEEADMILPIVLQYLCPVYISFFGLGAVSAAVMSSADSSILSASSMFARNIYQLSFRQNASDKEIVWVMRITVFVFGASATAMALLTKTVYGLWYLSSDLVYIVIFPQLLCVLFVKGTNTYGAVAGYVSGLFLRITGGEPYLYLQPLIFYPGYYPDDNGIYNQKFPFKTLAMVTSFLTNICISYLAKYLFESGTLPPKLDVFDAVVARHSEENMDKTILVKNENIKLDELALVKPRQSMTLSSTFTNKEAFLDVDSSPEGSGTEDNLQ

[4] = target: Induced myeloid leukemia cell differentiation protein Mcl-1 (Homo sapiens, UniProt Q07820); type: functional
Nonstructural protein 1 = Nonstructural protein 1 (Influenza A virus, UniProt Q194T2); type: functional, Influenza A virus (A/California/07/2009(H1N1))
[5] = target: T3, Replicative DNA helicase DnaB (Mycobacterium tuberculosis, UniProt P9WMR3); test: DnaB intein splicing inhibitors, dose response, biochemical, cell-free fluorescence (AID 449749); type: functional
T3 sequence (P9WMR3 whole entry): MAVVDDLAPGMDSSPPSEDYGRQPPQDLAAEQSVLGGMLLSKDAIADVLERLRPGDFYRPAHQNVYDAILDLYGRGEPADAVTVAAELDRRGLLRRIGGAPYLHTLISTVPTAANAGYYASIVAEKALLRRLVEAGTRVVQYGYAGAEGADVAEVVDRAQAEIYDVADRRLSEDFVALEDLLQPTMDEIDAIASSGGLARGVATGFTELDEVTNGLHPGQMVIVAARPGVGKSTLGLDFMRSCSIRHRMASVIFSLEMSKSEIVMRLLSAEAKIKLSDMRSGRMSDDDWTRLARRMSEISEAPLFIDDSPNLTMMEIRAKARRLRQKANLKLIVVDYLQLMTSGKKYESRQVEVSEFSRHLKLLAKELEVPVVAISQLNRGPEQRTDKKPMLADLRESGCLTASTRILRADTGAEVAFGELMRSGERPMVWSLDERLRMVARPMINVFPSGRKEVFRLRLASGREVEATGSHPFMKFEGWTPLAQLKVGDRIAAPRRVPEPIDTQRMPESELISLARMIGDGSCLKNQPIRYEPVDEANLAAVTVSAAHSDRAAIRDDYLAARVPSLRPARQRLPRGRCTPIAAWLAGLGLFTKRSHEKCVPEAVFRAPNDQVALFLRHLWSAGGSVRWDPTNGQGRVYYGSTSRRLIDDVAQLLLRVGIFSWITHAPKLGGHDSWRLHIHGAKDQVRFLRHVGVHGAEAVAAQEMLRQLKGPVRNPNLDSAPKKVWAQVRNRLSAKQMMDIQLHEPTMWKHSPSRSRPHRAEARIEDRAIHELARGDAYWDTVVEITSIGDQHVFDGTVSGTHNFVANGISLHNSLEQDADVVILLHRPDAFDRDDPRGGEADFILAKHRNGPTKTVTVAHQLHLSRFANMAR

[6] = target: T4, Apoptotic protease-activating factor 1 (Homo sapiens, UniProt O14727); type: functional
T4 sequence (O14727 whole entry): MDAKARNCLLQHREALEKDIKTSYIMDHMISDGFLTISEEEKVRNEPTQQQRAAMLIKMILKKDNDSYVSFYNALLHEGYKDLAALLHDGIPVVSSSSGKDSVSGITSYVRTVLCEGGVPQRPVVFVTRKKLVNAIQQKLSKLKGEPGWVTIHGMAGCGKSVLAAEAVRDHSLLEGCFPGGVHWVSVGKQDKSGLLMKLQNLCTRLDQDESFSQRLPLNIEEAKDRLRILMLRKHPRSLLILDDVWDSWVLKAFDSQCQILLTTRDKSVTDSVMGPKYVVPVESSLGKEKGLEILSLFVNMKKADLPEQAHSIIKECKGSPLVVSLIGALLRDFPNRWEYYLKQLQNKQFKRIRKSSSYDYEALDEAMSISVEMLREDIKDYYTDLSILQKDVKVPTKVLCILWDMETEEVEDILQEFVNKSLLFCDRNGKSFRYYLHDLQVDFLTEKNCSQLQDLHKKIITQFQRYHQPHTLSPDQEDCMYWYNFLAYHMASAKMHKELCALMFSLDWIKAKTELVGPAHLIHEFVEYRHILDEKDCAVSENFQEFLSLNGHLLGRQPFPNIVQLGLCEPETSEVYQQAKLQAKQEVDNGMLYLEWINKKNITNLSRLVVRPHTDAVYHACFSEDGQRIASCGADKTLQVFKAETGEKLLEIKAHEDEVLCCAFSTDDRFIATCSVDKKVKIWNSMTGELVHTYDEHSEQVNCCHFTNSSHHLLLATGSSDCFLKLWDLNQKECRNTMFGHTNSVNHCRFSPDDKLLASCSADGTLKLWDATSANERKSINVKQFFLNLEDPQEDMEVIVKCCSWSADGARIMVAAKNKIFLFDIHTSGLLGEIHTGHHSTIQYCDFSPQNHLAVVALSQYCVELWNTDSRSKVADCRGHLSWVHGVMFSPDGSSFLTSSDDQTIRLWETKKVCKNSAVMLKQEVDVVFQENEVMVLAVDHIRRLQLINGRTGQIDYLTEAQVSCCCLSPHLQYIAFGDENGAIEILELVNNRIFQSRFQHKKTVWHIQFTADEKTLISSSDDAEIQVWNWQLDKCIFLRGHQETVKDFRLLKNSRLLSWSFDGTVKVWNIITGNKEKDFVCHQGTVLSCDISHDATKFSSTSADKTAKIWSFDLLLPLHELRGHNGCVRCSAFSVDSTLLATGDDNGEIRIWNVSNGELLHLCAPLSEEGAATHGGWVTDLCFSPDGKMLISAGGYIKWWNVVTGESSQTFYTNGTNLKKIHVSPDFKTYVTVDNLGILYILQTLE

Protein RecA = target: T5, Protein RecA (Mycobacterium tuberculosis, UniProt P9WHJ3); test: Fluorescence Cell-Free Homogeneous Dose Retest to Identify Inhibitors of RecA-Intein Splicing Activity. [Related pubchem assays (depositor defined):AID2097, AID2223, AID489010, AID492950]; type: functional
T5 sequence (P9WHJ3 whole entry): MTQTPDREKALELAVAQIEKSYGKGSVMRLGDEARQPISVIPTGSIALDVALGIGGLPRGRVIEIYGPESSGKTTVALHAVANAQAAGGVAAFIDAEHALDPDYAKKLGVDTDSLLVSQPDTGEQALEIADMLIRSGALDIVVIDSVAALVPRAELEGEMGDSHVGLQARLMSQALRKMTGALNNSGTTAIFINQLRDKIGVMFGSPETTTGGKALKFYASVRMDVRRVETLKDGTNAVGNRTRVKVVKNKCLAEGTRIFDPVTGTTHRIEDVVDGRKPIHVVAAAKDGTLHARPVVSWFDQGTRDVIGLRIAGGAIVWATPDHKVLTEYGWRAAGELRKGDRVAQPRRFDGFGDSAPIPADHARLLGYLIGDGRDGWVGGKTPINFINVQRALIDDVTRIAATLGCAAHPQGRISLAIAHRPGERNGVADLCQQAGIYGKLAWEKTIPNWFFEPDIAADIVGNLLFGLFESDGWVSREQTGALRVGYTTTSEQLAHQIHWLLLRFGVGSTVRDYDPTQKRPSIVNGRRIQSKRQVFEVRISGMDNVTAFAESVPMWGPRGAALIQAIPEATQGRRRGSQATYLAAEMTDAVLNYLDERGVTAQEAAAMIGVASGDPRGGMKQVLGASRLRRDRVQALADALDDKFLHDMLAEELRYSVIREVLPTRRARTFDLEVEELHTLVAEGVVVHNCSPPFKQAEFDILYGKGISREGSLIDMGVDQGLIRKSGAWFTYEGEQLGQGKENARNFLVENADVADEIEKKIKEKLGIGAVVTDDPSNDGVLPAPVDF

[7] = target: T6, Polyadenylate-binding protein 1 (Homo sapiens, UniProt P11940); test: MLLE binding blockers, Cy5 peptide tracer – biochemical, fluorescence polarization, Cy5-PAM2 peptide, secondary, miRNA deadenylation inhibitor project, dose response (AID 602260); type: functional; details: read-out: IC50_Mean
[8] = target: T6, Polyadenylate-binding protein 1; test: MLLE domain peptide-binding blockers, IC50 – biochemical, fluorescence polarization, FITC-PAM2 peptide, dose response (AID 602259); type: functional; details: read-out: IC50_Mean
[9] = target: Voltage-gated inwardly rectifying potassium channel KCNH2 (Homo sapiens, UniProt Q12809); details: Potency;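 note: confirmatory quantitative high-throughput screen measuring inhibition of hERG channel activity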
[10] = target: T7, Aryl hydrocarbon receptor (Homo sapiens, UniProt P35869); details: Potency;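 note: confirmatory quantitative high-throughput screen measuring activation of the AhR signaling pathway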
T7 sequence (P35869 whole entry): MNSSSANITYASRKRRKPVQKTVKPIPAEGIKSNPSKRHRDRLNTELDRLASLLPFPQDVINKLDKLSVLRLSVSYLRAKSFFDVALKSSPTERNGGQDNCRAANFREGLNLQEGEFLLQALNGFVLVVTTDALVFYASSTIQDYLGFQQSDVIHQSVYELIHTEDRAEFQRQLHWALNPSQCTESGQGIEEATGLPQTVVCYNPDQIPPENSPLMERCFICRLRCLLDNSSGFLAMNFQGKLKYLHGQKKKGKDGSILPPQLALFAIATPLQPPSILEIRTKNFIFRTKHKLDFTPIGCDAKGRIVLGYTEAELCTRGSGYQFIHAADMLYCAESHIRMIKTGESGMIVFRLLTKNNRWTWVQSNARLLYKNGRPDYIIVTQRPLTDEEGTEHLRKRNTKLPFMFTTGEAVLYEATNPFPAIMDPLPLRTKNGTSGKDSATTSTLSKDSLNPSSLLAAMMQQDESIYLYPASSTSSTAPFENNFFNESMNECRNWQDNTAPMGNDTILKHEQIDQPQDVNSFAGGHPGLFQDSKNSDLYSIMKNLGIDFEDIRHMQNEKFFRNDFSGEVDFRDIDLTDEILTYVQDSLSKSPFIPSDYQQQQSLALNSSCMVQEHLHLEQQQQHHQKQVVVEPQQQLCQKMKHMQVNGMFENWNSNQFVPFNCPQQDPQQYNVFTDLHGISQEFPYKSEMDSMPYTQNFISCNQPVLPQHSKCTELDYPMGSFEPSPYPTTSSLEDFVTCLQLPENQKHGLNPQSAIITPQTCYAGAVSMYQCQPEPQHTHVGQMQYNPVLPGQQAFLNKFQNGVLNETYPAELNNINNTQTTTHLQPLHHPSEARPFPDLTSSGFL

Glucose-6-phosphate 1-dehydrogenase, sequence (P11413 whole entry): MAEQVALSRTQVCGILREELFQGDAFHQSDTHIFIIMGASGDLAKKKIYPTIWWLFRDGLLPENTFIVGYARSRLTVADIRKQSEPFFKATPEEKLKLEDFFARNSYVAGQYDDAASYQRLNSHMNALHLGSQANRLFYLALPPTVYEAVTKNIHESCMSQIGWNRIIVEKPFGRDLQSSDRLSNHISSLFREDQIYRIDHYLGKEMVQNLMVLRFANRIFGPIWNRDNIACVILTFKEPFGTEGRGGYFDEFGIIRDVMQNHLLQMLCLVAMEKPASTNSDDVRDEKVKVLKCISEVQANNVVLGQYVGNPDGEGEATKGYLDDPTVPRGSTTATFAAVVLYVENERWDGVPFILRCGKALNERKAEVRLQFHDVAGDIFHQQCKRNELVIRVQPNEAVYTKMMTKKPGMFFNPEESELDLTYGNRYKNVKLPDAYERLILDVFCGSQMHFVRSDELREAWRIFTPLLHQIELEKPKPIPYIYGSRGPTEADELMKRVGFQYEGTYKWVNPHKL
Voltage-gated inwardly rectifying potassium channel KCNH2, sequence (Q12809 whole entry): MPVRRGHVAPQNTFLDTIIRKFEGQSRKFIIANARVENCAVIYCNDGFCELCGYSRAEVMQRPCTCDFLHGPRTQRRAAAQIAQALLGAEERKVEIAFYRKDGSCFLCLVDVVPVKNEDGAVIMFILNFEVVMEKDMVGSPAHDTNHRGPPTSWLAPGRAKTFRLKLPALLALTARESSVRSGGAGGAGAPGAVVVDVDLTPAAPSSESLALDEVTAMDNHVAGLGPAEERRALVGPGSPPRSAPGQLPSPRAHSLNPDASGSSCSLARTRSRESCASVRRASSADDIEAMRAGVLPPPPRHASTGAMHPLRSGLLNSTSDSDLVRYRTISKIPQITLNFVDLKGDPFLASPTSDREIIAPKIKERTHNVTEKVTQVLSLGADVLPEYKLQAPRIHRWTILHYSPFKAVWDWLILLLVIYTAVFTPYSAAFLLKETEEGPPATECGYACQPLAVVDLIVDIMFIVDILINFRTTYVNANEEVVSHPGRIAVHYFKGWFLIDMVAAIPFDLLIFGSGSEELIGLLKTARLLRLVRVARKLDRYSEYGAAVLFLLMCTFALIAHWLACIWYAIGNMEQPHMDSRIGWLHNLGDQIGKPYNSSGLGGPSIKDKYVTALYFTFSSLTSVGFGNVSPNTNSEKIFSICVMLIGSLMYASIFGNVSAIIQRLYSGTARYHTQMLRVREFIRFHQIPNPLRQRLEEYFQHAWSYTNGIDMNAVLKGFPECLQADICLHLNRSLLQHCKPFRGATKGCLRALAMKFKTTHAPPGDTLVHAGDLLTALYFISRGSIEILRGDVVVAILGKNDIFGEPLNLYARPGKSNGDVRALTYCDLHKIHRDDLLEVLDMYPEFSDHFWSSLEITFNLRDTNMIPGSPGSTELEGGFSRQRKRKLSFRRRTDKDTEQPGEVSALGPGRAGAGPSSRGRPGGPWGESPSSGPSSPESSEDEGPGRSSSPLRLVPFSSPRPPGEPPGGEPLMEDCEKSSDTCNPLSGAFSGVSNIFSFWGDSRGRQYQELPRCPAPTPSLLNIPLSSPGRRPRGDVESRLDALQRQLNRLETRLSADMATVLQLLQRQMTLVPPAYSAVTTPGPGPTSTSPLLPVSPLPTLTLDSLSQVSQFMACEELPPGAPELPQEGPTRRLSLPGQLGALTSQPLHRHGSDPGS
T6 sequence (P11940 whole entry, the tested form may be a part): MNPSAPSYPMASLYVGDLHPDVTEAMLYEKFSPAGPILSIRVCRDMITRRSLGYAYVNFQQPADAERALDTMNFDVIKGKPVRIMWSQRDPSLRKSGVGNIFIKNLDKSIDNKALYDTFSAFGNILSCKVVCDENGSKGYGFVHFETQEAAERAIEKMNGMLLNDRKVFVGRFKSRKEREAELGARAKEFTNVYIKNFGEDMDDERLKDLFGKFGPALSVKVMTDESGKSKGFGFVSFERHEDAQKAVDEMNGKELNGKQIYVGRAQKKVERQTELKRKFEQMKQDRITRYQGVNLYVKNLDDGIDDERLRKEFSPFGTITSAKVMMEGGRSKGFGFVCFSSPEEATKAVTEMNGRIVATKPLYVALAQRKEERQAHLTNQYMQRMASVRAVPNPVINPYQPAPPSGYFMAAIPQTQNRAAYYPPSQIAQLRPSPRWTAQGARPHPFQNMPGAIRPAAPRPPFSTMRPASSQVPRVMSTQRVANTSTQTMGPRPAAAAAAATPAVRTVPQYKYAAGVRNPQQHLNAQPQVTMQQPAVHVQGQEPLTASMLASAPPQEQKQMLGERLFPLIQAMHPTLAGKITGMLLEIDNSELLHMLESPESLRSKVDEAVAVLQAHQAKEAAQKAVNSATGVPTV
Induced myeloid leukemia cell differentiation protein Mcl-1, sequence (Q07820 whole entry): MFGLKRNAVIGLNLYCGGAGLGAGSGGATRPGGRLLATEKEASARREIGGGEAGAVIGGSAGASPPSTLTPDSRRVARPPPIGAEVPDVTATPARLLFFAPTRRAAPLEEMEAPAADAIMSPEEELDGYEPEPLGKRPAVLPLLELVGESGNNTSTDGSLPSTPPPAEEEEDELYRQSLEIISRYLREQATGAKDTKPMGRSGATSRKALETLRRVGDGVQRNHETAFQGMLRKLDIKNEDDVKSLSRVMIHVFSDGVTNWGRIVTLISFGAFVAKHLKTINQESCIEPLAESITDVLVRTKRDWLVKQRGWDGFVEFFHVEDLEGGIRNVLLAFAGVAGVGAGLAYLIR
Nonstructural protein 1, sequence (Q194T2 whole entry): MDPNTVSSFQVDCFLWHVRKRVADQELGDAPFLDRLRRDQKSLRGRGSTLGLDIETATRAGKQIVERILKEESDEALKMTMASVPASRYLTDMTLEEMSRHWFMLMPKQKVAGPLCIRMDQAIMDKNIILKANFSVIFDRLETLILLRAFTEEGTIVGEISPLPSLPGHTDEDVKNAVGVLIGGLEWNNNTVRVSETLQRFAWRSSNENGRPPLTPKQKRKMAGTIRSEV

SMILES: NNC(=O)c1oc2nc(-c3ccc(Cl)cc3)cc(-c3ccccc3)c2c1N
- IC50 (CHO): > 49.7 µM (inactive)

SMILES: Cc1cc(Cl)c2oc(C(=O)N(CCO)Cc3ccccc3)c(C)c2c1
- IC50 (HEK293): > 67.5 µM (inactive)
- IC50 [1]: > 67.5 µM (inactive)

SMILES: O=C1Nc2cc(C(=O)NCCCN3CCCC3)ccc2S/C1=C\c1ccccc1
- IC50 [2]: > 80 µM (inactive)
- IC50 [3]: 14.5 µM (active)

SMILES: Cc1ccc(NC2=C(NC(=O)c3ccccc3)C(=O)c3ccccc3C2=O)cc1Cl
- IC50 [4]: 3.38 µM (active)
- IC50 [2]: > 80 µM (inactive)
- IC50 (Nonstructural protein 1): 17.5 µM (active)
- AC50 [5]: 3 µM (active)
- IC50 [6]: 17 µM (active)
- EC50 (Protein RecA): 2.52 µM (active)
- IC50 [7]: > 66 µM (inactive)
- IC50 [8]: > 66 µM (inactive)

SMILES: Nc1ccc(/N=N\c2ccccc2)c(N)c1
- AC50 [9]: 50.1 µM (inconclusive)
- AC50 [10]: 14.1 µM (inconclusive)

SMILES: CCOc1ccc(N(CC(=O)Nc2ccc(C)c(C)c2)S(C)(=O)=O)cc1
- IC50 (HEK293): > 67.5 µM (inactive)
- IC50 [1]: > 67.5 µM (inactive)

SMILES: CCOP(=S)(OCC)SCSC(C)(C)C [TERBUFOS]
- AC50 [9]: 39.8 µM (inconclusive)
